A word on the IC50: it is the concentration that inhibits the measured activity by half. Low readings indicate greater potency, high ones weaker potency.

Molecules are shown by their SMILES.

The first assay deals with BRG-1 (Homo sapiens, UniProt P51532). In words: ATPase catalytic activity assay (ADP-Glo), BRG-1.
BRG-1, sequence (P51532 whole entry): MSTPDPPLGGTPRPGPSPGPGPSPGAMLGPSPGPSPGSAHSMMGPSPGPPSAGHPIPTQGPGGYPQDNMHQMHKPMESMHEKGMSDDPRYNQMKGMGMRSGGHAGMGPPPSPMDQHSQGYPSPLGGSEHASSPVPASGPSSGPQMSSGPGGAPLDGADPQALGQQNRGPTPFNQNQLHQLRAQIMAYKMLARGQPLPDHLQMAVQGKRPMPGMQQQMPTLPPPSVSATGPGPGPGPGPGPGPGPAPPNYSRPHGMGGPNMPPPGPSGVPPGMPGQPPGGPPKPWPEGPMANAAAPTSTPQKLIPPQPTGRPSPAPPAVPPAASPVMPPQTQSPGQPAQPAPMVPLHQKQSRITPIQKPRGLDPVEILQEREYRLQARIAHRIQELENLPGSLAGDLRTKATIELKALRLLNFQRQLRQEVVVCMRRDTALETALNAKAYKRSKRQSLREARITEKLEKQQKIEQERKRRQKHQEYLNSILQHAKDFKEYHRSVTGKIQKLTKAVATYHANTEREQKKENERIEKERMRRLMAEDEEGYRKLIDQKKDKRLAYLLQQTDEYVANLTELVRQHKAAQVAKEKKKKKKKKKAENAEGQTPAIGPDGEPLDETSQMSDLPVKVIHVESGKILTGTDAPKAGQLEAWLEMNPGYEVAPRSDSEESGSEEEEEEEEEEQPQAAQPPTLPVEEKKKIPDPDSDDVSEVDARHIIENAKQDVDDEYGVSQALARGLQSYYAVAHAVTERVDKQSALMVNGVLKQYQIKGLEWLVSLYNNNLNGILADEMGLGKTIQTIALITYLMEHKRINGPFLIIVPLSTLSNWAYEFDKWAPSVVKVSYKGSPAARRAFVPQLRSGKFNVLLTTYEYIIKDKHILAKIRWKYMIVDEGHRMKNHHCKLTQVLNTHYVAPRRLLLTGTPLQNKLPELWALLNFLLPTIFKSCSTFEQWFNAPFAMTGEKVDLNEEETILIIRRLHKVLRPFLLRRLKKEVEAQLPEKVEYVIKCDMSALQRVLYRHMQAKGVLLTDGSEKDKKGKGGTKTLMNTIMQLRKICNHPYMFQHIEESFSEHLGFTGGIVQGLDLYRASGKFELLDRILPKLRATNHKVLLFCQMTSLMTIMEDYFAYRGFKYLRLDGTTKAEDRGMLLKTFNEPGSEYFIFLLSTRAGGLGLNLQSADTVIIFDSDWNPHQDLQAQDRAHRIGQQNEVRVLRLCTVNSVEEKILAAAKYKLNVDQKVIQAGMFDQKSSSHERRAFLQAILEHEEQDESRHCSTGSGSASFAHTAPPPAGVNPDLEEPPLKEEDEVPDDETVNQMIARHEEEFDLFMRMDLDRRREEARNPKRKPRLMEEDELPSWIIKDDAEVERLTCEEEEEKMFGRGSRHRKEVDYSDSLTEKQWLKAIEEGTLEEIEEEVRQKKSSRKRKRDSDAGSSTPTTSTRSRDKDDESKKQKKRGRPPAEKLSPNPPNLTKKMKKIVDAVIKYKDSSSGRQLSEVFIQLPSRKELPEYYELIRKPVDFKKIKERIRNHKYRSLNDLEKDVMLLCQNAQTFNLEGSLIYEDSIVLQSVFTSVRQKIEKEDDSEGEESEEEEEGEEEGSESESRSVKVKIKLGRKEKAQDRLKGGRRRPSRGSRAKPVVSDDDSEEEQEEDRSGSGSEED
Conditions: not given
On to `C[C@@]1(F)COCc2ccc(C(=O)NCc3cc4nc(-c5ccnc(N6CCC6)n5)cnc4cn3)cc21` [Compound 190], for which the IC50 lay within 0.1 to 0.5 µM.

On to `C[C@@]1(F)COCc2ccc(C(=O)NCc3cc4nc(-c5cccc(C6(CO)CC6)n5)ccc4cn3)cc21` [Compound 168], for which the IC50 is 0.1 to 0.5 µM.

In turn, `C[C@@]1(C#N)COCc2ccc(C(=O)NCc3cc4nn(-c5ccccc5)cc4cn3)cc21` [Compound 524] showed an IC50 of more than 1 µM.

`COc1nn(C)cc1-c1ccc2nnc(CNC(=O)c3ccc4c(c3)[C@](C)(F)COC4)cc2n1` [Compound 275] displayed a 50% inhibitory concentration (IC50) of 0.5 to 1 µM.

`CN1CC(c2cccc(-c3ccc4cnc(CNC(=O)c5ccc6c(c5)[C@](C)(C#N)COC6)cc4n3)n2)C1` [Compound 359] came in with an IC50 of more than 1 µM.

On to `C[C@@]1(F)COCc2ccc(C(=O)NCc3cc4nc(-c5ccnc(N6CC[C@@H]7COC[C@H]7C6)n5)ccc4cn3)cc21` [Compound 308], for which the IC50 is less than 0.1 µM.

With `C[C@@]1(C#N)COCc2ccc(C(=O)NCc3cc4nc(-c5ccn6nccc6c5)ccc4cn3)cc21` [Compound 459], the IC50 lay within 0.1 to 0.5 µM.

The molecule `COc1nn(C)cc1-c1cnc2cnc(CNC(=O)c3ccc4c(c3)[C@](C)(C#N)COC4)cc2c1` [Compound 261] yielded an IC50 of 0.5 to 1 µM.

For `CN1CC(c2cccc(-c3ccc4cnc(CNC(=O)c5ccc6c(c5)[C@](C)(C#N)COC6)cc4n3)c2)C1` [Compound 421], the IC50 was more than 1 µM.

In the case of `O=C(NCc1cc2nc(-c3cncc(C4CC4)n3)ccc2cn1)c1cnc2c(c1)[C@](F)(C(F)F)COC2` [Compound 228], the IC50 fell in the range of 0.1 to 0.5 µM.

`C[C@@]1(C#N)COCc2ccc(C(=O)NCc3cc4nc(-c5ccnc(C6(F)CC6)n5)ccc4cn3)cc21` [Compound 204]: the IC50 fell in the range of 0.5 to 1 µM.

Turning to `C[C@@]1(C#N)COCc2ccc(C(=O)NCc3cc(OCc4cccc(C#N)c4)ccn3)cc21` [Compound 65], the IC50 is more than 1 µM.

In the case of `COC[C@H](NC(=O)c1ccc2c(c1)[C@](C)(C#N)COC2)c1cc(C#Cc2ccccc2)ccn1` [Compound 43], the IC50 is more than 1 µM.

`C[C@@]1(C#N)COCc2ccc(C(=O)NCc3cc4cc(N5CCn6ncc(C(F)F)c6C5)cnc4cn3)cc21` [Compound 220] showed an IC50 of more than 1 µM.

Take `CN1CCN(c2nccc(-c3ccc4cnc(CNC(=O)c5ccc6c(c5)[C@](C)(F)COC6)cc4n3)n2)CC1=O` [Compound 267]: the IC50 is 0.1 to 0.5 µM.

`O=C(NCc1cc2nc(-c3cncc(C4CC4)n3)ccc2cn1)c1cnc2c(c1)[C@](F)(C(F)F)CCO2` [Compound 241] came in with an IC50 of 0.5 to 1 µM.

As for `CN1C[C@@](C)(C#N)c2cc(C(=O)NCc3cc4nc(-c5ccccc5)ccc4cn3)ccc21` [Compound 96], the IC50 is more than 1 µM.

`C[C@@]1(C#N)COCc2ccc(C(=O)NCc3cc4nc(-c5ccnc(N6C[C@H]7C[C@@H]6CO7)n5)ccc4cn3)cc21` [Compound 310] gave an IC50 of 0.1 to 0.5 µM.

The assay is the same for the next values; noted with them: 1 h, read-out: BRG1 Max % Inhibition, ADP-Glo, 30 nM BRG-1, 400 μM ATP.
In the case of `C[C@@]1(F)COCc2ccc(C(=O)NCc3cc4nc(-c5ccnc(N6CCC6)n5)cnc4cn3)cc21` [Compound 190], the Emax is 89%.

For the molecule `C[C@@]1(F)COCc2ccc(C(=O)NCc3cc4nc(-c5cccc(C6(CO)CC6)n5)ccc4cn3)cc21` [Compound 168], the Emax came out at 93%.

Regarding `C[C@@]1(C#N)COCc2ccc(C(=O)NCc3cc4nn(-c5ccccc5)cc4cn3)cc21` [Compound 524], the Emax stood at 50%.

Regarding `COc1nn(C)cc1-c1ccc2nnc(CNC(=O)c3ccc4c(c3)[C@](C)(F)COC4)cc2n1` [Compound 275], the Emax stood at 77%.

`CN1CC(c2cccc(-c3ccc4cnc(CNC(=O)c5ccc6c(c5)[C@](C)(C#N)COC6)cc4n3)n2)C1` [Compound 359]: the Emax turned out to be 39%.

With `C[C@@]1(F)COCc2ccc(C(=O)NCc3cc4nc(-c5ccnc(N6CC[C@@H]7COC[C@H]7C6)n5)ccc4cn3)cc21` [Compound 308], the Emax is 96%.

On to `C[C@@]1(C#N)COCc2ccc(C(=O)NCc3cc4nc(-c5ccn6nccc6c5)ccc4cn3)cc21` [Compound 459], for which the Emax stood at 86%.

Turning to `COc1nn(C)cc1-c1cnc2cnc(CNC(=O)c3ccc4c(c3)[C@](C)(C#N)COC4)cc2c1` [Compound 261], the Emax is 61%.

In the case of `CN1CC(c2cccc(-c3ccc4cnc(CNC(=O)c5ccc6c(c5)[C@](C)(C#N)COC6)cc4n3)c2)C1` [Compound 421], the Emax turned out to be 37%.

With `O=C(NCc1cc2nc(-c3cncc(C4CC4)n3)ccc2cn1)c1cnc2c(c1)[C@](F)(C(F)F)COC2` [Compound 228], the Emax stood at 98%.

As to `C[C@@]1(C#N)COCc2ccc(C(=O)NCc3cc4nc(-c5ccnc(C6(F)CC6)n5)ccc4cn3)cc21` [Compound 204], the Emax turned out to be 82%.

As to `C[C@@]1(C#N)COCc2ccc(C(=O)NCc3cc(OCc4cccc(C#N)c4)ccn3)cc21` [Compound 65], the Emax was 39%.

Regarding `COC[C@H](NC(=O)c1ccc2c(c1)[C@](C)(C#N)COC2)c1cc(C#Cc2ccccc2)ccn1` [Compound 43], the Emax was 34%.

`C[C@@]1(C#N)COCc2ccc(C(=O)NCc3cc4cc(N5CCn6ncc(C(F)F)c6C5)cnc4cn3)cc21` [Compound 220]: the Emax was 47%.

`CN1CCN(c2nccc(-c3ccc4cnc(CNC(=O)c5ccc6c(c5)[C@](C)(F)COC6)cc4n3)n2)CC1=O` [Compound 267]: the Emax turned out to be 88%.

`O=C(NCc1cc2nc(-c3cncc(C4CC4)n3)ccc2cn1)c1cnc2c(c1)[C@](F)(C(F)F)CCO2` [Compound 241]: the Emax amounted to 63%.

For the molecule `CN1C[C@@](C)(C#N)c2cc(C(=O)NCc3cc4nc(-c5ccccc5)ccc4cn3)ccc21` [Compound 96], the Emax turned out to be 20%.

With `C[C@@]1(C#N)COCc2ccc(C(=O)NCc3cc4nc(-c5ccnc(N6C[C@H]7C[C@@H]6CO7)n5)ccc4cn3)cc21` [Compound 310], the Emax was determined as 84%.

In the next assay the target is BRM (Homo sapiens, UniProt P51531). As to the kind of experiment: ATPase catalytic activity assay (ADP-Glo), BRM. Particulars: 30 nM BRM, 400 μM ATP.
BRM, sequence (P51531 whole entry): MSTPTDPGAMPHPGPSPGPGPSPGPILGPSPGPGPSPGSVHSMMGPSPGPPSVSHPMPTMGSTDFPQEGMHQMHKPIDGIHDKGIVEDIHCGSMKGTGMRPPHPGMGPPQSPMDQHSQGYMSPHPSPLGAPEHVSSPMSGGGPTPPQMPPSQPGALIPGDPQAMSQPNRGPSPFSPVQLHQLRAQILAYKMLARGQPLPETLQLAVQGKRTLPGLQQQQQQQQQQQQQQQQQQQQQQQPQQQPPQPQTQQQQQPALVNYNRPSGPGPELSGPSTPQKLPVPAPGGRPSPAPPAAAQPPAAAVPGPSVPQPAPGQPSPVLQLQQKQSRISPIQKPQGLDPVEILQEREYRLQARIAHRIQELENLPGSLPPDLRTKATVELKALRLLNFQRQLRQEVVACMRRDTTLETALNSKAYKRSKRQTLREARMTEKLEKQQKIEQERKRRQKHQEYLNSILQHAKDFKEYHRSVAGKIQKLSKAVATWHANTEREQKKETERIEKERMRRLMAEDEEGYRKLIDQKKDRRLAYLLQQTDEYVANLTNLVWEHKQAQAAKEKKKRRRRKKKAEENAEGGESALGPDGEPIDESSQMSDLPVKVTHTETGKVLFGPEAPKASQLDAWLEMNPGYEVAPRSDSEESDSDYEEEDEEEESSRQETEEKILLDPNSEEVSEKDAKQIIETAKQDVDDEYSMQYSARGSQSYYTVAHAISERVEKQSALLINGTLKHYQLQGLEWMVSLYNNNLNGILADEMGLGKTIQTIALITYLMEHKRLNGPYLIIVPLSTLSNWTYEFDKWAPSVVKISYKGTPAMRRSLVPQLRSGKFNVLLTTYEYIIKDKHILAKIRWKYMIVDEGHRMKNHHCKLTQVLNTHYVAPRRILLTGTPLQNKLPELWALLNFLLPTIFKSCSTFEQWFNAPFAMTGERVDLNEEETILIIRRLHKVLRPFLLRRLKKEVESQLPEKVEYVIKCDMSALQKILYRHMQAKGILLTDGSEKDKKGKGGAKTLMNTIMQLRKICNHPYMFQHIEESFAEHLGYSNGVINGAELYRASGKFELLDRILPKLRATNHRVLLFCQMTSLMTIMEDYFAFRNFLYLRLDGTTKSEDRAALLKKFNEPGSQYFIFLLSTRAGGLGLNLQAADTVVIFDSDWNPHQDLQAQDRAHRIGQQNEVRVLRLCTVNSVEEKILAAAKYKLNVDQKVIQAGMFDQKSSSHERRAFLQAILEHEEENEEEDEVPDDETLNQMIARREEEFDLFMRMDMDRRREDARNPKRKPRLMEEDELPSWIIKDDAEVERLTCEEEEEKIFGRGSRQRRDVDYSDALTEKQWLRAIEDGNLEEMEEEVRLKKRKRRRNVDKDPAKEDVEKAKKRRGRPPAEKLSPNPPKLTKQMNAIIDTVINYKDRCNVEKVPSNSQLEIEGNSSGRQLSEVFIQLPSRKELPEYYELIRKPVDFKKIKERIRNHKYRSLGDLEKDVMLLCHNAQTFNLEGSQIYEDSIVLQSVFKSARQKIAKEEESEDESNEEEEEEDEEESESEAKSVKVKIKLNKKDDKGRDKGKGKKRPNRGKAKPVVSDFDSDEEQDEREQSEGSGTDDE
For `C[C@@]1(F)COCc2ccc(C(=O)NCc3cc4nc(-c5ccnc(N6CCC6)n5)cnc4cn3)cc21` [Compound 190], the “BRM Max % Inhibition” value is 98%.

As to `C[C@@]1(F)COCc2ccc(C(=O)NCc3cc4nc(-c5cccc(C6(CO)CC6)n5)ccc4cn3)cc21` [Compound 168], the “BRM Max % Inhibition” value came out at 99%.

For `C[C@@]1(C#N)COCc2ccc(C(=O)NCc3cc4nn(-c5ccccc5)cc4cn3)cc21` [Compound 524], the “BRM Max % Inhibition” value is 95%.

Take `COc1nn(C)cc1-c1ccc2nnc(CNC(=O)c3ccc4c(c3)[C@](C)(F)COC4)cc2n1` [Compound 275]: the “BRM Max % Inhibition” value turned out to be 96%.

In the case of `CN1CC(c2cccc(-c3ccc4cnc(CNC(=O)c5ccc6c(c5)[C@](C)(C#N)COC6)cc4n3)n2)C1` [Compound 359], the “BRM Max % Inhibition” value is given as 89%.

Regarding `C[C@@]1(F)COCc2ccc(C(=O)NCc3cc4nc(-c5ccnc(N6CC[C@@H]7COC[C@H]7C6)n5)ccc4cn3)cc21` [Compound 308], the “BRM Max % Inhibition” value stood at 99%.

Consider `C[C@@]1(C#N)COCc2ccc(C(=O)NCc3cc4nc(-c5ccn6nccc6c5)ccc4cn3)cc21` [Compound 459], for which the “BRM Max % Inhibition” value turned out to be 97%.

As to `COc1nn(C)cc1-c1cnc2cnc(CNC(=O)c3ccc4c(c3)[C@](C)(C#N)COC4)cc2c1` [Compound 261], the “BRM Max % Inhibition” value amounted to 94%.

For the molecule `CN1CC(c2cccc(-c3ccc4cnc(CNC(=O)c5ccc6c(c5)[C@](C)(C#N)COC6)cc4n3)c2)C1` [Compound 421], the “BRM Max % Inhibition” value is 84%.

Take `O=C(NCc1cc2nc(-c3cncc(C4CC4)n3)ccc2cn1)c1cnc2c(c1)[C@](F)(C(F)F)COC2` [Compound 228]: the “BRM Max % Inhibition” value is 100%.

Turning to `C[C@@]1(C#N)COCc2ccc(C(=O)NCc3cc4nc(-c5ccnc(C6(F)CC6)n5)ccc4cn3)cc21` [Compound 204], the “BRM Max % Inhibition” value was found to be 97%.

With `C[C@@]1(C#N)COCc2ccc(C(=O)NCc3cc(OCc4cccc(C#N)c4)ccn3)cc21` [Compound 65], the “BRM Max % Inhibition” value was determined as 90%.

Regarding `COC[C@H](NC(=O)c1ccc2c(c1)[C@](C)(C#N)COC2)c1cc(C#Cc2ccccc2)ccn1` [Compound 43], the “BRM Max % Inhibition” value came out at 68%.

`C[C@@]1(C#N)COCc2ccc(C(=O)NCc3cc4cc(N5CCn6ncc(C(F)F)c6C5)cnc4cn3)cc21` [Compound 220]: the “BRM Max % Inhibition” value came out at 92%.

Consider `CN1CCN(c2nccc(-c3ccc4cnc(CNC(=O)c5ccc6c(c5)[C@](C)(F)COC6)cc4n3)n2)CC1=O` [Compound 267], for which the “BRM Max % Inhibition” value is reported as 103%.

On to `O=C(NCc1cc2nc(-c3cncc(C4CC4)n3)ccc2cn1)c1cnc2c(c1)[C@](F)(C(F)F)CCO2` [Compound 241], for which the “BRM Max % Inhibition” value is reported as 97%.

Take `CN1C[C@@](C)(C#N)c2cc(C(=O)NCc3cc4nc(-c5ccccc5)ccc4cn3)ccc21` [Compound 96]: the “BRM Max % Inhibition” value stood at 84%.

With `C[C@@]1(C#N)COCc2ccc(C(=O)NCc3cc4nc(-c5ccnc(N6C[C@H]7C[C@@H]6CO7)n5)ccc4cn3)cc21` [Compound 310], the “BRM Max % Inhibition” value came out at 97%.

The same assay, now with this note: BRM ATPase: IC50 (uM), 30 nM BRM, 400 μM ATP.
`C[C@@]1(F)COCc2ccc(C(=O)NCc3cc4nc(-c5ccnc(N6CCC6)n5)cnc4cn3)cc21` [Compound 190] returned an IC50 of less than 0.1 µM.

Consider `C[C@@]1(F)COCc2ccc(C(=O)NCc3cc4nc(-c5cccc(C6(CO)CC6)n5)ccc4cn3)cc21` [Compound 168], for which the IC50 was less than 0.1 µM.

In turn, `C[C@@]1(C#N)COCc2ccc(C(=O)NCc3cc4nn(-c5ccccc5)cc4cn3)cc21` [Compound 524] had a concentration for half-maximal inhibition (IC50) of 0.1 to 0.5 µM.

In the case of `COc1nn(C)cc1-c1ccc2nnc(CNC(=O)c3ccc4c(c3)[C@](C)(F)COC4)cc2n1` [Compound 275], the IC50 was less than 0.1 µM.

`CN1CC(c2cccc(-c3ccc4cnc(CNC(=O)c5ccc6c(c5)[C@](C)(C#N)COC6)cc4n3)n2)C1` [Compound 359] registered an IC50 of 0.1 to 0.5 µM.

`C[C@@]1(F)COCc2ccc(C(=O)NCc3cc4nc(-c5ccnc(N6CC[C@@H]7COC[C@H]7C6)n5)ccc4cn3)cc21` [Compound 308]: the IC50 was less than 0.1 µM.

`C[C@@]1(C#N)COCc2ccc(C(=O)NCc3cc4nc(-c5ccn6nccc6c5)ccc4cn3)cc21` [Compound 459] returned an IC50 of less than 0.1 µM.

`COc1nn(C)cc1-c1cnc2cnc(CNC(=O)c3ccc4c(c3)[C@](C)(C#N)COC4)cc2c1` [Compound 261] registered an IC50 of 0.1 to 0.5 µM.

Consider `CN1CC(c2cccc(-c3ccc4cnc(CNC(=O)c5ccc6c(c5)[C@](C)(C#N)COC6)cc4n3)c2)C1` [Compound 421], for which the IC50 lay within 0.1 to 0.5 µM.

For the molecule `O=C(NCc1cc2nc(-c3cncc(C4CC4)n3)ccc2cn1)c1cnc2c(c1)[C@](F)(C(F)F)COC2` [Compound 228], the IC50 was less than 0.1 µM.

For `C[C@@]1(C#N)COCc2ccc(C(=O)NCc3cc4nc(-c5ccnc(C6(F)CC6)n5)ccc4cn3)cc21` [Compound 204], the IC50 is less than 0.1 µM.

As for `C[C@@]1(C#N)COCc2ccc(C(=O)NCc3cc(OCc4cccc(C#N)c4)ccn3)cc21` [Compound 65], the IC50 was in the range of 0.1 to 0.5 µM.

On to `COC[C@H](NC(=O)c1ccc2c(c1)[C@](C)(C#N)COC2)c1cc(C#Cc2ccccc2)ccn1` [Compound 43], for which the IC50 is more than 1 µM.

Regarding `C[C@@]1(C#N)COCc2ccc(C(=O)NCc3cc4cc(N5CCn6ncc(C(F)F)c6C5)cnc4cn3)cc21` [Compound 220], the IC50 lay in the range of 0.1 to 0.5 µM.

As for `CN1CCN(c2nccc(-c3ccc4cnc(CNC(=O)c5ccc6c(c5)[C@](C)(F)COC6)cc4n3)n2)CC1=O` [Compound 267], the IC50 was less than 0.1 µM.

Take `O=C(NCc1cc2nc(-c3cncc(C4CC4)n3)ccc2cn1)c1cnc2c(c1)[C@](F)(C(F)F)CCO2` [Compound 241]: the 50% inhibitory concentration (IC50) lay within 0.1 to 0.5 µM.

`CN1C[C@@](C)(C#N)c2cc(C(=O)NCc3cc4nc(-c5ccccc5)ccc4cn3)ccc21` [Compound 96] had an IC50 of more than 1 µM.

`C[C@@]1(C#N)COCc2ccc(C(=O)NCc3cc4nc(-c5ccnc(N6C[C@H]7C[C@@H]6CO7)n5)ccc4cn3)cc21` [Compound 310] displayed an IC50 of less than 0.1 µM.
